Data from article PMC6245356, “A New Sesquiterpenoid Hydroquinone from the Marine Sponge Dysidea arenaria” (Molecules, 2008).

Target: HIV-1 RT (Human immunodeficiency virus type 1 group M subtype B, UniProt P04585)
Experiment: in vitro anti-HIV activity: inhibition of HIV-1 RT
Type: biochemical
Conditions: for activity against HIV-1 RT (result in words) / IC50: in vitro; for activity against HIV-1 RT (result in words): same biological target as the IC50 values

SMILES | activity against HIV-1 RT (result in words) | IC50 [µM] | other results
C=C1CCC[C@H]2[C@](CO)(Cc3cc(C(=O)OC)c(O)c(OC)c3O)[C@@H](C)CC[C@]12C [Compound 1, 19-hydroxy-polyfibrospongol B] | inactive | – | –
C=C1CCC[C@H]2[C@](CO)(Cc3cc(C(=O)OC)cc(OC)c3O)[C@@H](C)CC[C@]12C [Compound 2, polyfibrospongol B] | inactive | – | –
C=C1CCC[C@H]2[C@](C)(CC3=C(O)C(=O)C=C(OC)C3=O)[C@@H](C)CC[C@]12C [Compound 3, isosemnonorthoquinone] | – | 240 | –
C=C1CCC[C@H]2[C@](C)(CC3=C(O)C(=O)C=C(N)C3=O)[C@@H](C)CC[C@]12C [Compound 5, smenospongine] | – | 176 | –
C=C1CCC[C@H]2[C@](C)(CC(=O)C3=C(OC)C(O)OC3=O)[C@@H](C)CC[C@]12C (stereo partly drawn) [Compound 6, smenotronic acid] | – | 130 | –
O=C(O)P(=O)(O)O [PFA, reference compound] | – | – | inhibition ratio of HIV-1 RT (at 0.05 µM, positive control): 85%
